{"source": "paper PMC8282797", "about": "“Strictly regulated agonist-dependent activation of AMPA-R is the key characteristic of TAK-653 for robust synaptic responses and cognitive improvement” (Scientific Reports, 2021)", "key": {"[1]": {"test": "Pharmacokinetics in monkeys", "type": "in vivo", "conditions": "monkey, plasma, po, 0.03 mg/kg"}, "[2]": {"target": "GluA2o LBD (Homo sapiens, UniProt P42262)", "sequence (P42262 with tags, fused parts or gaps)": "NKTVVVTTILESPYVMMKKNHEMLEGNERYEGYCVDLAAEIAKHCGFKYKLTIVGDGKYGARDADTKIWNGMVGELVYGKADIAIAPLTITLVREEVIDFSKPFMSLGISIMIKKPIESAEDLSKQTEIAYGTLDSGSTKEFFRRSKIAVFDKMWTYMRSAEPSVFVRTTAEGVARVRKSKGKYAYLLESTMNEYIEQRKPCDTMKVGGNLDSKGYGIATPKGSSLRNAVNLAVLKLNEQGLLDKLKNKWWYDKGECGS", "test": "SPA binding of [3H]-AMPA to His-LBD", "text": "We previously reported that structural interference at Ser750 in the channel-closed state of GluA2o LBD might be involved in the molecular mechanisms underlying the lower agonistic effect of AMPA-R potentiators with dihydropyridothiadiazine 2,2-dioxide derivatives and discovered TAK-137, 9-(4-phenoxyphenyl)-3,4-dihydropyrido[2,1-c][1,2,4]thiadiazine 2,2-dioxide (Fig. 1A)[16]. […] TAK-653 bound to the intradimer interface formed by the ligand binding core (Fig. 1B). […] Binding affinity of TAK-653 to the GluA2o LBD was measured by a scintillation proximity assay (SPA) using [^3H]-HBT1, a radio-labeled LBD-binding AMPA-R potentiator, and a His-tagged GluA2o LBD protein (His-LBD)[21]. […] Binding of [^3H]-TAK-653 to His-LBD was also measured by SPA.\nThe SPA assays were performed as previously described, with some modifications. First, 62.5 μg YSi (2–5 μm) copper his-tag SPA beads (PerkinElmer Inc., Waltham, MA) and 0.25 μg His-tagged GluA2o LBD protein (His-LBD) were incubated in 100 μL PBS containing 0.01% NP-40 and 100 μM glutamate for the [^3H]-HBT1/LBD binding assay, containing 0.01% NP-40 and the indicated amount of glutamate for the [^3H]-TAK-653/LBD binding assay or containing 0.001% Triton X-100 for the [^3H]-AMPA/LBD binding assay in 96-well Luminunc plates (Thermo Fisher Scientific Inc.) overnight at 4 °C. Subsequently, test compound and tritium-labeled ligand (40 nM [^3H]-HBT1, 20 nM [^3H]-TAK-653 or 20 nM [^3H]-AMPA) were added to each well. Specific binding was defined as total binding minus nonspecific binding, which was estimated in the presence of 0.25 μg of control protein (His-tagged macrophage MIF protein) instead of His-LBD or in the presence of 3 mM AMPA. Radioactivity derived from the bound radio ligand was measured using a microplate scintillation counter (TopCount NXT, PerkinElmer Inc.)."}, "[3]": {"target": "T1, hGluA1i (Homo sapiens, UniProt P42261)", "T1 construct": "expressed in transfected cells; host or cells: CHO cells", "T1 sequence (P42261 19-906 isoform P42261-2 limits assumed)": "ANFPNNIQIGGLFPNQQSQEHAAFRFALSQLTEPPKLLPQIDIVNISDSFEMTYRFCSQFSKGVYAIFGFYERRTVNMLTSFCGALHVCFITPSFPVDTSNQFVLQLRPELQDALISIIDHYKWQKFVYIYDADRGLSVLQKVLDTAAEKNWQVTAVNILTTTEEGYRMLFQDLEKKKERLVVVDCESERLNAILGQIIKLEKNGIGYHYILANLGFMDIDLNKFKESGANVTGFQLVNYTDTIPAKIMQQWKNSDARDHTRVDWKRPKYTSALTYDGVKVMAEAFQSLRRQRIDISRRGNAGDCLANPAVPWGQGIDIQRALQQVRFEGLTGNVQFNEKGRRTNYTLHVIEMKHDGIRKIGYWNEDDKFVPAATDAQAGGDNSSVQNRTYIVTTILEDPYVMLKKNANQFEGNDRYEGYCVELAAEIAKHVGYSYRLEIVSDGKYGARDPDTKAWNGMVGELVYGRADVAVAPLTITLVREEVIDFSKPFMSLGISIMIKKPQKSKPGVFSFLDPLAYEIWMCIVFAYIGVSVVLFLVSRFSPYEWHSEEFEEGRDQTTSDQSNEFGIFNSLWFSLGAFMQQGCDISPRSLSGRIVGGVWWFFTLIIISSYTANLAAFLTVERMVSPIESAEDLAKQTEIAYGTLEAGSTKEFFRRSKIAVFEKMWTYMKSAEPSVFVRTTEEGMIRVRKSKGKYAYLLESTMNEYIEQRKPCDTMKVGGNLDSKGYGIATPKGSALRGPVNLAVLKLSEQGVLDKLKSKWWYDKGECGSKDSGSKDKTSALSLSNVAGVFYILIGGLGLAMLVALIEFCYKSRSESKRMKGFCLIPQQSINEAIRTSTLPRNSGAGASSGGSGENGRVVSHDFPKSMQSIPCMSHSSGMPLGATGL", "T1 sequence (Q9Y698 whole entry partner)": "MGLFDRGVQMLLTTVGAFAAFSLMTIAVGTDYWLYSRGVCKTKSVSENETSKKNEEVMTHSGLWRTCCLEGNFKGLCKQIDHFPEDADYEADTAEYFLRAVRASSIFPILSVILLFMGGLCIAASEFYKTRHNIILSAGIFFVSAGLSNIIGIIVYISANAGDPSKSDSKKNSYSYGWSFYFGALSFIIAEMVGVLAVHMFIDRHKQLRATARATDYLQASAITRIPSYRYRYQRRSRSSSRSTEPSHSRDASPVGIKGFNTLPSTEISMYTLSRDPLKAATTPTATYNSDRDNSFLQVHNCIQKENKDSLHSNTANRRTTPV", "test": "Ca2+ influx assay in hGluA1i CHO cells", "type": "cell-based", "conditions": "in the presence of glutamate (3 mM)", "method": "Ca^2+ influx assays using human GluA1/flip and human stargazin co-expressing CHO cells plated at 3 × 10^4 cells/well in 96-well Black Clear plates (Corning Incorporated, Corning, NY) were performed as previously described, with some modifications. For evaluation of the species difference, rat GluA1/flip expressing CHO cells were plated. For mutant channels, the human GluA1i S743A mutant was generated using the In-Fusion HD Cloning Kit (Takara Bio Inc., Kusatsu, Japan) according to the manufacturer's protocol and transiently introduced to CHO cells by Gene Pulser II Electroporation System (Bio-Rad Laboratories, Inc., Hercules, CA). Relative increases of intracellular Ca^2+ levels were monitored for 3 min with a fluorometric imaging plate reader (CellLux, Perkin Elmer Life and Analytical Sciences, Inc., Shelton, CT). […]\nHuman GluA1/flip and human stargazin co-expressing CHO cells were plated at 3×10^4 cells/well in 96-well Black Clear plate (Corning Incorporated, Corning, NY). […] Relative increases of intracellular Ca^2+ levels by compounds in the presence and absence of 3 mM L-glutamate were monitored for 3 min by fluorometric imaging plate reader (CellLux, Perkin Elmer Life and Analytical Sciences, Inc., Shelton, CT). Activity of compound was defined as integration value of fluorescence value of each detection point. […] EC50 values were calculated by logistic regression analysis."}}}
{"smiles": "CC1=CN2CCS(=O)(=O)N=C2C(c2ccc(OC3CCCCC3)cc2)=N1", "note": "[TAK-653, 9-[4-(Cyclohexyloxy)phenyl]-7-methyl-3,4-dihydropyrazino[2,1-c][1,2,4]thiadiazine 2,2-dioxide]", "values": [{"measurement": "Tmax", "setting": "[1]", "value": 8, "unit": "h"}, {"measurement": "half-life", "setting": "[1]", "value": "9.4 ± 3.8", "unit": "h"}, {"measurement": "Inhibition of specific binding of [3H]-AMPA to His-LBD", "setting": "[2]", "value": "did not inhibit"}, {"measurement": "EC50", "setting": "[2]; SPA, 20 nM [3H]-AMPA, read-out: EC50 of increase in [3H]-AMPA binding", "value": "1500 ± 200", "unit": "nM"}, {"measurement": "Emax", "setting": "[2]; SPA, 20 nM [3H]-AMPA, read-out: Emax of increase in [3H]-AMPA binding", "value": "19.9 ± 3.4", "unit": "%"}, {"measurement": "EC50", "setting": "[3]", "value": 3300, "unit": "nM"}]}
